The test system of one data set is zebrafish. The following applies: for NTT time spent at the top and bottom: 20 min treatment, 5 min test. Here is the method: Adult male and female wild-type zebrafish were treated with the compounds for 20 min in a final volume of 50 ml in a 250-ml treatment beaker, one fish at a time. […] If not, the concentration was reduced until no obvious signs of tolerability problems (e.g., seizure-like tail or body movement) were observed.
Following compound treatment in a 250 ml beaker, the fish were briefly rinsed in fresh system water, and then immediately transferred to a trapezoidal tank (14.6 cm height x 5.5 cm width x 27.9 cm top length and x 23.6 cm bottom length) filled with 1.5 L system water (Figure 1B). The behavior of the fish was monitored for the next 5 min by using the Noldus EthoVision XT system (Wageningen, Netherlands), with the camera placed approximately 1 m from the test tank (Figure 1C). The water-filled part of the tank (11.5 cm height) was virtually divided into top, center, and bottom (Figure 1B). The average time spent at the top and bottom portions of the tank was analyzed to determine the anxiety-like behavior of fish. […] The experimenters were blind to the test conditions. A minimum of 12 fish (6 females and 6 males) per condition were used for the study.
The behavioral findings were analyzed in 1 min bins using two-way repeated measures ANOVA with Dunnett post hoc analysis. The analyses were conducted by using GraphPad Prism v8.2.1 (GraphPad Software, San Diego, CA, United States).

A further data set addresses T1, MAO A (Homo sapiens, UniProt P21397).
T1 sequence (P21397 1-527): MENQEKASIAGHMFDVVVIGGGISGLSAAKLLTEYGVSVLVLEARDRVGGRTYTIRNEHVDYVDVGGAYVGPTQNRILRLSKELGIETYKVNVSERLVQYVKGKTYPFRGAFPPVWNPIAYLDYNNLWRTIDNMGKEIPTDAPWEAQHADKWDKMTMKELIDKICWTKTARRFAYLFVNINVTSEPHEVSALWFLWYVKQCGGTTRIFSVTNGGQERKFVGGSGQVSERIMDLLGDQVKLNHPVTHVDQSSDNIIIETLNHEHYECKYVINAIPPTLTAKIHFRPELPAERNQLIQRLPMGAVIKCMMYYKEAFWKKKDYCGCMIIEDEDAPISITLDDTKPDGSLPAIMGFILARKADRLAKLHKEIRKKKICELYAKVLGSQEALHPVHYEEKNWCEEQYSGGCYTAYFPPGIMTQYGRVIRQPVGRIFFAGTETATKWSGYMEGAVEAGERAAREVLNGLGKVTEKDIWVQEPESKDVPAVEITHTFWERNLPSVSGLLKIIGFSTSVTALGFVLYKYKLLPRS
The data set can be described thus: MAO-Glo two-step bioluminescent assay, MAO A. Type of data set: biochemical. To be noted: for Selectivity between MAO A and B: present study. From the text: (§1) Fluostar Omega 96 Microplate reader (BMG LABTECH GmbH, Ortenberg, Germany) was used to measure the luminescent signal and to determine the IC50 (half maximal inhibitory concentration).

For the next data set, the system named is zebrafish brain. The data set can be described thus: Ex vivo bioavailability assay in fish brain (UPLC-HRMS or GC/MS). The following applies: relative brain level per 1 mg/L.
For data set [1], the system named is norepinephrine transporter. Nature of the data set: Pilot in vitro norepinephrine transporter binding (data not shown). To be noted: pilot study in vitro.
In the next data set the test system is serotonin receptor. The data set can be described thus: Pilot in vitro serotonin receptor binding (data not shown). To be noted: pilot study in vitro.
Another data set addresses T2, MAO B (Homo sapiens, UniProt P27338).
T2 sequence (P27338 1-520): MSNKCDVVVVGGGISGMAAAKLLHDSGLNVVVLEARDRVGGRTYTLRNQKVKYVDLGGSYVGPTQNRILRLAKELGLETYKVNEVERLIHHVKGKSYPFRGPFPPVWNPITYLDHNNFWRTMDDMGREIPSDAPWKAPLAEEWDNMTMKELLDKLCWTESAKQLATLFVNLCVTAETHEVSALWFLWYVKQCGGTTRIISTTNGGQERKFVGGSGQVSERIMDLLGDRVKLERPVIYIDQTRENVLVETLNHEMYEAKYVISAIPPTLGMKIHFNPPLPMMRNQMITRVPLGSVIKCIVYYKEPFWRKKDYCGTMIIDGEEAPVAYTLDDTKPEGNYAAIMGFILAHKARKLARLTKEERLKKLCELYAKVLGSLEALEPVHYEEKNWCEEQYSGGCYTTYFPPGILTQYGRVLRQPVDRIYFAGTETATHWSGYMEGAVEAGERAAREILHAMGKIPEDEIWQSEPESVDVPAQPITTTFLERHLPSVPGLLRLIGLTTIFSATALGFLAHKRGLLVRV
Nature of the data set: MAO-Glo two-step bioluminescent assay, MAO B. To be noted: mean ± SEM; substrate 3 µM. Type of data set: biochemical.
Text: as §1

The test system of data set [2] is MAO-A and MAO-B. The following applies: cited from earlier work.
Data set [3] concerns MAO-A and MAO-B. Further details: method as in Fisar et al., 2010. To be noted: crude pig brain mitochondrial fractions ref Fisar et al., 2010; cited from earlier work.
[4] abbreviates: two highest concentrations tested.
Setting [5] is: all concentrations tested, throughout the test period.

Counter-ions that a name gives are not always drawn. Like-named read-outs stand apart in the source and are kept apart here.

Description for zebrafish brain: The fish were decapitated at the level of the gills by using a surgical knife. The head was turned dorsal side down, and, soft tissue was removed from the ventral side of the skull using two forceps until the base of the skull was exposed. The skull was broken open, and the bone from the ventral side of the brain was removed. The brain was then placed in a microcentrifuge tube, weighed, snap-frozen in liquid nitrogen, and stored at −80°C until the analysis.
Briefly, on the day of analysis, the brain samples were defrosted, resuspended in a methanol solution (2:1 [v/v] methanol:MilliQ water), and homogenized with vigorous agitation and ultrasonication (5 min each). The homogenate was centrifuged at 15,000 x rpm for 10 min, and the supernatant was analyzed by using a UPLC-Q Exactive Orbitrap-HRMS system (Thermo Fisher Scientific™, Bremen, Germany) for all compounds except for TMN, which was analyzed by gas chromatography/mass spectrometry (GC/MS) system. Chromatographic separation was achieved on a Synergi™ 4-µm Hydro-RP 80 Å, L.C. […]
For TMN, the Agilent GC/MS system (Agilent, Santa Clara, CA, United States) was used, because it is an apolar aromatic compound that could not be ionized for the detection by the UPLC-Q Exactive Orbitrap-HRMS system. […] The results were quantified using Agilent MS Workstation software (v6.9.3).

Take `C#CCN(C)CCCOc1ccc(Cl)cc1Cl` [Clorgyline, clorgyline hydrochloride, reference compound]: the “NTT time spent at the top and bottom” value with zebrafish (10 mg/L) is recorded as “no effect”; in the data set with zebrafish (30 mg/L), “significantly increasing it only during the last 2 min”; in the data set on zebrafish (100 mg/L), “increasing the time spent at the top for almost the entire test period”. Further, in the data set with zebrafish (setting [4]), the “NTT total distance traveled” value is reported as “significantly reduced”. Besides, the Tolerability in zebrafish result with zebrafish (zebrafish, in vivo) was “borderline of tolerability”.

Broadly, the IC50 is the concentration that gives 50% inhibition. `Cc1nccc2c1[nH]c1ccccc12` [Harmane]: the values for the 50% inhibitory concentration (IC50) on MAO A and at MAO B were 50 ± 30 nM and above 100000 nM, respectively. Also, the “MAO-A selectivity over MAO-B” value at MAO A (from IC50 values) is > 2,000 fold. For the same compound, on MAO A, the “Selectivity between MAO A and B” value is “only MAO A selective inhibitor”. Besides, in the data set on zebrafish brain, the “Brain level relative to the rest of compounds tested” value is “approximately 10 fold”. The “Norepinephrine transporter binding activity” value in data set [1] was around 10 µM. Moreover, the “Serotonin receptor binding activity” value with serotonin receptor is around 10 µM. Further, the “NTT time spent at the top and bottom” value with zebrafish (1 mg/L) is “increased the time spent at the top and decreased the time spent at the bottom during the first minute”; in the data set on zebrafish (3 mg/L), “increased the time spent at the top and decreased the time spent at the bottom during the first minute”; in the data set with zebrafish (10 mg/L), “no effect”. In the data set with zebrafish (setting [5]), the “NTT total distance traveled” value is recorded as “significantly reduced”. Also, the NTT freezing time result with zebrafish (highest concentration tested) was “increased the freezing time during the first 2 min”.

For the compound `c1ccc2c(c1)[nH]c1cnccc12` [Norharmane, norharmane], the “Norepinephrine transporter binding activity” value in data set [1] is around 10 µM. In the data set with serotonin receptor, the “Serotonin receptor binding activity” value was around 10 µM. The “NTT time spent at the top and bottom” value in the data set on zebrafish (0.3 mg/L) is “no effect”; in the data set with zebrafish (1 mg/L), “significant effect between 2 and 3 min of the test”; in the data set on zebrafish (3 mg/L), “increased the time spent at the top and decreased the time spent at the bottom during the last 2 min”. The “NTT total distance traveled” value in the data set with zebrafish (highest concentration tested) is “significantly reduced”.

Consider `C#CCN(C)Cc1ccccc1` [Pargyline, pargyline hydrochloride], for which the “Difference in Ki values of MAO-A and MAO-B” value is given as above 100 fold with MAO-A and MAO-B [2] (recombinant human enzymes ref Oh et al., 2020); 21 fold with MAO-A and MAO-B [2] (recombinant human enzymes ref Takao et al., 2019). In addition, the “Difference between the Ki values of MAO-A and MAO-B” value in the data set with MAO-A and MAO-B [3] is listed as 1.4 fold. The “NTT time spent at the top and bottom” value in the data set with zebrafish (10 mg/L) is given as “only an anxiogenic-like effect, but only for the first 1 min of the test”. In addition, the “NTT total distance traveled” value in the data set with zebrafish (setting [4]) is recorded as “significantly reduced”.

`c1ccc2c(c1)CCNC2` [TIQ, 1,2,3,4-tetrahydroisoquinoline]: the “NTT time spent at the top and bottom” value was “no effect” in the data set on zebrafish (10 mg/L); “generally increased and decreased the time spent at the top and bottom, respectively” in the data set with zebrafish (30 mg/L); “generally increased and decreased the time spent at the top and bottom, respectively” with zebrafish (100 mg/L). The “Effect on general movement in NTT” value in the data set on zebrafish (10, 30 and 100 mg/L) is on record as “no observable effect on general movement”.

As to `CC1=C(C)C(=O)c2cc(C)ccc2C1=O` [TMN, 2,3,6-trimethyl-1,4-naphtoquinone], the IC50 on MAO A (mean ± SEM, substrate 20 µM, read-out: MAO a IC50) worked out at 1140 ± 740 nM; against MAO B, 7140 ± 2290 nM. Also, on MAO A, the “Selectivity between MAO A and B” value is “no selectivity”. Besides, the “NTT time spent at the top and bottom” value was “only an anxiogenic-like effect during the last couple of minutes” with zebrafish (10 mg/L); “mix of both anxiolytic- and anxiogenic-like behaviors” with zebrafish (30 mg/L). Also, the “NTT total distance traveled” value with zebrafish (setting [5]) is listed as “significantly reduced”. Besides, the Tolerability in zebrafish entry with zebrafish (highest concentrations tested, relatively high number of fish with long freezing) is “borderline of tolerability”. In addition, in the data set on zebrafish (setting [4]), the NTT freezing time entry is recorded as “increased the freezing time”.

As for `O=C1CC2(CCCC2)CC(=O)N1CCCCN1CCN(c2ncccn2)CC1` [buspirone, Buspirone hydrochloride, reference compound], the “NTT time spent at the top and bottom, treatment effect” value in the data set with zebrafish (10, 30 and 100 mg/L, two-way ANOVA) is given as “significant treatment effect”. For the same compound, the Tolerability in zebrafish result in the data set on zebrafish (zebrafish, in vivo) is recorded as “borderline of tolerability”.

(Values after paper PMC8165606, “Effects of Natural Monoamine Oxidase Inhibitors on Anxiety-Like Behavior in Zebrafish” (Frontiers in Pharmacology, 2021).)
